Earlier results as cited in patent US20130165511A1, “TREATMENT FOR COCAINE ADDICTION” (priority 2010, published 2013).

Legend:
ALDH-I = target: T1, ALDH-I (Homo sapiens, UniProt P05091)
T1 sequence (P05091 18-517): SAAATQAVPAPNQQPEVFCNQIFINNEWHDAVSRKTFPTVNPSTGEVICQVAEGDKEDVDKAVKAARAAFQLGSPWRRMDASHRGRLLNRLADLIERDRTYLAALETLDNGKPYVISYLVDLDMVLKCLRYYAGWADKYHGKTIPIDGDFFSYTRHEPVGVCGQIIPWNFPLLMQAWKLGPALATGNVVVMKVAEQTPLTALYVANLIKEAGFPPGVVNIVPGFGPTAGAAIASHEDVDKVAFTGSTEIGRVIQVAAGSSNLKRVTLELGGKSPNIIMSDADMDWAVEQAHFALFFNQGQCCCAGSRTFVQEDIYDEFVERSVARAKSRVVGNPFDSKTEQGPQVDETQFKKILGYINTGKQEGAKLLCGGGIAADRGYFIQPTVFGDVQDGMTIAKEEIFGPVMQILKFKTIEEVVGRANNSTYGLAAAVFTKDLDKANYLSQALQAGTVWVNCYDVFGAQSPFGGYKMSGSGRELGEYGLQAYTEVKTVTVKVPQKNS

CYP2D6 = CYP2D6 (Homo sapiens, UniProt P10635)
CYP2C19 = CYP2C19 (Homo sapiens, UniProt P33261)
CYP2B6 = target: T2, CYP2B6 (Homo sapiens, UniProt P20813)
T2 sequence (P20813 1-491): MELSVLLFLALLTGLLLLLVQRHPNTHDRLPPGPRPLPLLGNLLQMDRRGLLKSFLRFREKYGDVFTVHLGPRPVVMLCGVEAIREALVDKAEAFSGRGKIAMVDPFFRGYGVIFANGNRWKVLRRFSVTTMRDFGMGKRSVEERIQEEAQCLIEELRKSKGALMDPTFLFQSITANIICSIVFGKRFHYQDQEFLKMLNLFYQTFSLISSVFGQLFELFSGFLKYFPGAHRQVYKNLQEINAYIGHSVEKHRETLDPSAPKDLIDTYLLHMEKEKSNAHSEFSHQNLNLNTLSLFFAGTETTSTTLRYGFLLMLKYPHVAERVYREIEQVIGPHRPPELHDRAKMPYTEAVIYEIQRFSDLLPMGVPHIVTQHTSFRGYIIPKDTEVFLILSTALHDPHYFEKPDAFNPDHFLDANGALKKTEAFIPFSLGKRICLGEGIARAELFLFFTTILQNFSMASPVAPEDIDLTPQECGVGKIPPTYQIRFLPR

ALDH-II = target: T3, ALDH-II (Homo sapiens, UniProt P00352)
T3 sequence (P00352 1-501): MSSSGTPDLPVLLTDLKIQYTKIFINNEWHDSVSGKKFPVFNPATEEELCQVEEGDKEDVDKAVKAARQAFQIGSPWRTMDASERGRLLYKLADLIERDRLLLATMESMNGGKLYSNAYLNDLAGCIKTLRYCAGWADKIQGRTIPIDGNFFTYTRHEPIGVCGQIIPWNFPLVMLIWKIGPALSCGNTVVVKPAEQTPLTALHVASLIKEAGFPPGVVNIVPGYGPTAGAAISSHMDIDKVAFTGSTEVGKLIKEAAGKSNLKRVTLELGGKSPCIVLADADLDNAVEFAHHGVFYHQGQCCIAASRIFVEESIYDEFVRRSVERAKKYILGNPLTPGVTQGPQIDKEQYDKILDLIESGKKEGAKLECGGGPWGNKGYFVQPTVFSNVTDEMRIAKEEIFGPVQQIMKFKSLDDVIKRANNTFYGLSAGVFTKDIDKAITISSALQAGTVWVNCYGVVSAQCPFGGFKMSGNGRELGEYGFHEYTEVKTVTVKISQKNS

[1] = 10 mg CR, double-blind randomized study of 134 subjects with cocaine dependence, post hoc analyses
[2] = animal studies, dosage range 0.001-1.0 mg/kg
ALDH = conditions: rat studies
[3] = rat studies

CYP2D6, sequence (P10635 whole entry): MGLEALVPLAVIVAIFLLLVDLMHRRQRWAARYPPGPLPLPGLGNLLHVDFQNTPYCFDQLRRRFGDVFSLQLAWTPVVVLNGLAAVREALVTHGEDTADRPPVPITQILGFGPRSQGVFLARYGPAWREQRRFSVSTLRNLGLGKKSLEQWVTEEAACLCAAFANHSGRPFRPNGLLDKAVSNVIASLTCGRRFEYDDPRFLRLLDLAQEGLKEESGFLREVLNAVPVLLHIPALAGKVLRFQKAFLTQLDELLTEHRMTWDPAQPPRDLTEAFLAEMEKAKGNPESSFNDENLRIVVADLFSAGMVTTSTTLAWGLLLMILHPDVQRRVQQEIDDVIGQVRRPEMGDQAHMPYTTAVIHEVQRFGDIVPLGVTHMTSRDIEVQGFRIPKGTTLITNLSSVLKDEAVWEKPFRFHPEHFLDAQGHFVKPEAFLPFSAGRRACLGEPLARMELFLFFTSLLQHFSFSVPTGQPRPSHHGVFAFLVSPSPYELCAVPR
CYP2C19, sequence (P33261 whole entry): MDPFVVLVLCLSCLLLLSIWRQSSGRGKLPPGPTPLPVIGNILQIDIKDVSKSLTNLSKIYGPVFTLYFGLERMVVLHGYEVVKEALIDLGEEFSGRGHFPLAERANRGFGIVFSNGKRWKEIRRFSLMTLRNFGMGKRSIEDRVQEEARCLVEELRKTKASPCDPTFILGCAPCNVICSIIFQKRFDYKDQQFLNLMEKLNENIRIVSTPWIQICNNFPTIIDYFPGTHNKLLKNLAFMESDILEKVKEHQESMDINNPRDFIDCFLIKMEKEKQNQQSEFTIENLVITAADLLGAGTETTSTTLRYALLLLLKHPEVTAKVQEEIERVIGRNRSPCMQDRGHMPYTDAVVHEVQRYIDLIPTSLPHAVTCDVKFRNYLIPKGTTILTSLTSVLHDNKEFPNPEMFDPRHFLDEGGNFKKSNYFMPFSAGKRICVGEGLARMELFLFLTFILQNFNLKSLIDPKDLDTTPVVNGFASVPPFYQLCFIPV

In the case of `O=c1c(-c2ccc(O)cc2)coc2cc(O[C@@H]3O[C@H](CO)[C@@H](O)[C@H](O)[C@H]3O)ccc12` [Daidzin, daidzin], the “inhibition of ALDH-I” value (ALDH-I) is given as “selective potent reversible inhibitor”.

For `C#CCNC(C)Cc1ccccc1` (centres unmarked) [N-des methyl selegiline], the “inhibition of CYP2D6” value (CYP2D6) is listed as “concentration dependent inhibition”, the “inhibition of CYP2C19” value (CYP2C19) is listed as “concentration dependent inhibition” and the “inhibition of CYP2B6” value (CYP2B6) is listed as “concentration dependent inhibition”.

For `N#CN` [cyanamide], the “inhibition of ALDH-I in vitro” value (ALDH-I; in vitro) is given as “unable to inhibit” and the “inhibition of ALDH-II in vitro” value (ALDH-II) is given as “unable to inhibit”.

In the case of `C#CCN(C)[C@H](C)Cc1ccccc1` [selegiline], the “self-reported 'high' and 'stimulated' feelings after cocaine administration, area under the curve” value (10 mg CR formulation, eight subjects) is listed as “decreased”, the “reduction in subjective euphoria” value (selegiline 10 mg po/day followed by acute cocaine infusion, PET study) is listed as 40% and the “composite score of urine benzoylecgonine (BE), self report and observed improvement” value [1] is listed as “statistically significant effect”. The “inhibition of CYP2D6” value (CYP2D6) was “concentration dependent inhibition”, the “inhibition of CYP2B6” value (CYP2B6) was “concentration dependent inhibition” and the “safety and abuse potential” value [2] was “safe agent without potential abuse”.

For “N5-(hydroxycyclopropyl)-L-glutamine [coprine]”, the “ALDH inhibition compared to disulfiram” value (ALDH) is given as “more potent inhibitor” and the ethanol consumption [3] is given as “effectively suppressed”.
